# Results taken from US20260207602A1, “EGFR INHIBITORS” (Blueprint Medicines Corporation, priority 2022, published 2026).
# Tests used:
# [1] = target: T1, EGFR L858R (Homo sapiens, UniProt P00533, L858R); experiment: Biochemical EGFR inhibition assay (Caliper mobility shift), EGFR L858R; settings: biochemical Caliper mobility shift assay, EGFR L858R enzyme; read-out: Enz EGFR L858R IC50
# T1 construct: purchased SignalChem E10-122BG
# Procedure, shortened: (§1)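 Apparent IC50 from Caliper separation of phospho-peptide from substrate. Conditions: 2.5 µM 5-FAM peptide, 1.0 mM ATP or ATP Km, pH 7.5 HEPES buffer, room temperature, 10–20% conversion, EDTA stop.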
# [2] = target: T2, EGFR (d746-750) (Homo sapiens, UniProt P00533, DEL746-750); experiment: Biochemical EGFR inhibition assay (Caliper mobility shift), EGFR (d746-750); settings: biochemical Caliper mobility shift assay, EGFR Exon 19-del enzyme; read-out: Enz EGFR Exon 19-del IC50
# T2 construct: purchased SignalChem E10-122JG
# Procedure, shortened: as §1
# [3] = target: intracellular phosphorylation of EGFR (Tyr1068) in PC-9 cells (Homo sapiens, UniProt P00533, DEL746-750); experiment: PC-9 pEGFR AlphaLISA assay; type: cell-based; settings: 4 hours incubation, read-out: Phos EGFR PC9 IC50
# Procedure, shortened: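 PC-9 cells (EGFR del746-750) in phenol-free DMEM/10% FBS, adhered overnight, then exposed to 10-point 4-fold compound dilutions for 4 h at 37 °C. Lysates assayed for pEGFR Tyr1068 by AlphaLISA SureFire Ultra; IC50 from percent pEGFR inhibition vs log concentration.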
# T2 sequence (P00533 with tags, fused parts or gaps DEL746-750 limits assumed): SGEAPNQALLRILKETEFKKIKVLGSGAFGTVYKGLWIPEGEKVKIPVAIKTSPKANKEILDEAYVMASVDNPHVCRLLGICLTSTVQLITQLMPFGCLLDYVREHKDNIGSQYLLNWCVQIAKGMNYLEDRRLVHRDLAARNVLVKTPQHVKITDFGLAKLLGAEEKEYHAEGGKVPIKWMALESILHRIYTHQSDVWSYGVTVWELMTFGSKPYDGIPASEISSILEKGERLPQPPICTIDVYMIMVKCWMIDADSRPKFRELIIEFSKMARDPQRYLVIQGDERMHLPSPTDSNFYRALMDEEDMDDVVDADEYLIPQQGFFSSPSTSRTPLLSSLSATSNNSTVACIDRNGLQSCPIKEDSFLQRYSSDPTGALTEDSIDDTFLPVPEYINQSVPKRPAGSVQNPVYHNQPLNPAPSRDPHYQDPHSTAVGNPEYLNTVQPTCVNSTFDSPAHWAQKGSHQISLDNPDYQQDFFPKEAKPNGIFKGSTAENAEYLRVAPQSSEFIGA
# Chain of intracellular phosphorylation of EGFR (Tyr1068) in PC-9 cells (P00533 with tags, fused parts or gaps DEL746-750): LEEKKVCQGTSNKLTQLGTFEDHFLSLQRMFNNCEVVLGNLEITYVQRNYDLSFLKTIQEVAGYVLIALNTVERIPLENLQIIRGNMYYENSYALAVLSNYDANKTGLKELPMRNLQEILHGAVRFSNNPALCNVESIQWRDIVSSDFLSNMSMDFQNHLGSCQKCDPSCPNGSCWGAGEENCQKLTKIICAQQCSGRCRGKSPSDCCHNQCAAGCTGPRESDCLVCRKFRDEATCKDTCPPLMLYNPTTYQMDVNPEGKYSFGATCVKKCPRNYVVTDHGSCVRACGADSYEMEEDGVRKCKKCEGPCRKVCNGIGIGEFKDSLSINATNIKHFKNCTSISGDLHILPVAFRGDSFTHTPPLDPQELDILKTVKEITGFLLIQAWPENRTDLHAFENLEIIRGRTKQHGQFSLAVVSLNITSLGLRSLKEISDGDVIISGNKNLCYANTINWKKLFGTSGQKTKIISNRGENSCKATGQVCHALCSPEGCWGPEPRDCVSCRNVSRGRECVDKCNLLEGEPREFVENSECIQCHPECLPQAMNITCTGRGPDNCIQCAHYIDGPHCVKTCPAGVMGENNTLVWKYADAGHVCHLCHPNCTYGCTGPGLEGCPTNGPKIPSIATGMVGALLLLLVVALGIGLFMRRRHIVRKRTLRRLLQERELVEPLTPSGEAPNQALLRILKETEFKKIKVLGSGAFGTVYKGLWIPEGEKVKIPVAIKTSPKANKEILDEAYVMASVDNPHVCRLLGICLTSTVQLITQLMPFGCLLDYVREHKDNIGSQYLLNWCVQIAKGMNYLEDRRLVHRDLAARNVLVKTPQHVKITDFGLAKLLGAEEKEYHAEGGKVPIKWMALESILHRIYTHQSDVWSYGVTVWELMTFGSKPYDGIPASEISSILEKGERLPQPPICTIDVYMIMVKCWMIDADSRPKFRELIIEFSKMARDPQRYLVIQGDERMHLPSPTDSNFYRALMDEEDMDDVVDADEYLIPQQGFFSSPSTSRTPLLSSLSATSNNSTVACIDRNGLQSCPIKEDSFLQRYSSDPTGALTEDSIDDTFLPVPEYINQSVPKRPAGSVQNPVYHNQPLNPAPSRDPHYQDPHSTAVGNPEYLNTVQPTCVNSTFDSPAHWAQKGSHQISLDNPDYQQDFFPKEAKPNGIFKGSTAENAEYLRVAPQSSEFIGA
# T1 sequence (P00533 25-1210 L858R): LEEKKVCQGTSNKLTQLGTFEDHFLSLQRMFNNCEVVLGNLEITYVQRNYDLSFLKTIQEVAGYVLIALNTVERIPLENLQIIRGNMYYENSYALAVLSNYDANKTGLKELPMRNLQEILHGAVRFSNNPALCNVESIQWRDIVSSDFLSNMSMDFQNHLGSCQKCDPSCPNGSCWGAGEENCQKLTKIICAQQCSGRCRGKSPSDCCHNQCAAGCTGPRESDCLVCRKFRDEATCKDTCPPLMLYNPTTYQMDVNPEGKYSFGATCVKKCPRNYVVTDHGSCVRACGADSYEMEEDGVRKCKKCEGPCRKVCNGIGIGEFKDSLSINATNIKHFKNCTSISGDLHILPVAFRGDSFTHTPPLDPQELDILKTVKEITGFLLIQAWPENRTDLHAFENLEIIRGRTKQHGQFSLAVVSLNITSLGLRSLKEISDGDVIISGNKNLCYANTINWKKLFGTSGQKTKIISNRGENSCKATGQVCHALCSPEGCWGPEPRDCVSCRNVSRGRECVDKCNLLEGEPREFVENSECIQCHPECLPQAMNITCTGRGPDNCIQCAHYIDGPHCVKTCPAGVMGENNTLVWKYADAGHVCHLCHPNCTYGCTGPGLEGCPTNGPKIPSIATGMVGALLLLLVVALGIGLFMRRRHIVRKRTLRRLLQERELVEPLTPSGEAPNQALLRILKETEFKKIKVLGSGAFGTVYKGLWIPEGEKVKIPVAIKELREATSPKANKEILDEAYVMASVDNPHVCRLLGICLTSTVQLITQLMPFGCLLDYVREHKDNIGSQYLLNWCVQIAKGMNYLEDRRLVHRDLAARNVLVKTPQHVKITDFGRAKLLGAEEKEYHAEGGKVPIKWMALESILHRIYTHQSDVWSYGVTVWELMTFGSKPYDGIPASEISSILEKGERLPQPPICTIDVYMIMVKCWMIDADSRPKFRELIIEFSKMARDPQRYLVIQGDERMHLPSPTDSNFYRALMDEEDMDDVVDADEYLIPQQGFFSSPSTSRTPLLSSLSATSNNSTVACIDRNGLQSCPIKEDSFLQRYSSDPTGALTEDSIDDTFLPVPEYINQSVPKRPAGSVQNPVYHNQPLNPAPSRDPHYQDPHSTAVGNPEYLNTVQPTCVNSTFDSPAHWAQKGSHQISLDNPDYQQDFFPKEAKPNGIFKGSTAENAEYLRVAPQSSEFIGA
SMILES,IC50 [1] [nM],IC50 [2] [nM],IC50 [3] [nM]
"COc1cn(C)nc1-c1cc(OC2CCN(C)CC2)c2c(Nc3ccc4ncsc4c3)ncnc2c1 [Example 131, N-(7-(4-methoxy-1-methyl-1H-pyrazol-3-yl)-5-((1-methylpiperidin-4-yl)oxy)quinazolin-4-yl)benzo[d]thiazol-6-amine]",10.1 to 50,≤ 10,10.1 to 50
"CN1CCN(CCOc2cc(OC3CCOCC3)c3c(Nc4ccc5ncsc5c4)ncnc3c2)CC1 [Example A16, N-(7-(2-(4-methylpiperazin-1-yl)ethoxy)-5-((tetrahydro-2H-pyran-4-yl)oxy)quinazolin-4-yl)benzo[d]thiazol-6-amine]",10.1 to 50,≤ 10,10.1 to 50
"CO[C@@H]1CCNC[C@H]1Oc1cc(-c2cnn(C)c2)cc2ncnc(Nc3ccc4ncsc4c3)c12 (single isomer, unassigned) [Example A37]",≤ 10,≤ 10,10.1 to 50
"C[C@@H](Oc1cc(N2CC3CC(C2)O3)cc2ncnc(Nc3ccc4ncsc4c3F)c12)C1COC1 [Example 180, N-(7-(6-oxa-3-azabicyclo[3.1.1]heptan-3-yl)-5-((R)-1-(oxetan-3-yl)ethoxy)quinazolin-4-yl)-7-fluorobenzo[d]thiazol-6-amine]",≤ 10,≤ 10,≤ 10
"C[C@H]1COCC[C@H]1Oc1cc(-c2cnn(C)c2)cc2ncnc(Nc3ccc4ncsc4c3)c12 (racemic) [Example 25, cis-racemic N-(7-(1-methyl-1H-pyrazol-4-yl)-5-(((3S,4R)-3-methyltetrahydro-2H-pyran-4-yl)oxy)quinazolin-4-yl)benzo[d]thiazol-6-amine]",≤ 10,≤ 10,10.1 to 50
"Cn1cc(-c2cc(OCC3COC3)c3c(Nc4ccc5ncsc5c4)ncnc3c2)cn1 [Example 28, N-(7-(1-methyl-1H-pyrazol-4-yl)-5-(oxetan-3-ylmethoxy)quinazolin-4-yl)benzo[d]thiazol-6-amine]",≤ 10,≤ 10,10.1 to 50
"C[C@@H]1CNCCN1c1cc(O[C@H](C)C2COC2)c2c(Nc3ccc4ncsc4c3F)ncnc2c1 (single isomer, unassigned) [Example 104]",≤ 10,≤ 10,10.1 to 50
"Cn1cc(-c2cc(OC3CCOC3)c3c(Nc4ccc5ncsc5c4)ncnc3c2)cn1 (stereo not drawn) [Example 415, N-(7-(1-methyl-1H-pyrazol-4-yl)-5-((tetrahydrofuran-3-yl)oxy)quinazolin-4-yl)benzo[d]thiazol-6-amine]",≤ 10,≤ 10,10.1 to 50
"C[C@@H](CN(C)C)Oc1cc(-c2cnn(C)c2)cc2ncnc(Nc3ccc4ncsc4c3)c12 (single isomer, unassigned) [Example 159, (S)—N-(5-((1-(dimethylamino)propan-2-yl)oxy)-7-(1-methyl-1H-pyrazol-4-yl)quinazolin-4-yl)benzo[d]thiazol-6-amine or (R)—N-(5-((1-(dimethylamino)propan-2-yl)oxy)-7-(1-methyl-1H-pyrazol-4-yl)quinazolin-4-yl)benzo[d]thiazol-6-amine]",10.1 to 50,≤ 10,10.1 to 50
"Cn1cc(-c2cc(OC3CCN(CC(F)F)CC3)c3c(Nc4ccc5ncsc5c4)ncnc3c2)cn1 [Example 311, N-(5-((1-(2,2-difluoroethyl)piperidin-4-yl)oxy)-7-(1-methyl-1H-pyrazol-4-yl)quinazolin-4-yl)benzo[d]thiazol-6-amine]",≤ 10,≤ 10,≤ 10
"COc1nn(C)cc1-c1cc(O[C@@H]2CCN(C)C[C@H]2F)c2c(Nc3ccc4ncsc4c3)ncnc2c1 (single isomer, unassigned) [Example 359]",≤ 10,≤ 10,10.1 to 50
"C[C@@H](Oc1cc(-c2cnn(C)c2)cc2ncnc(Nc3ccc4ncsc4c3)c12)[C@H](C)N(C)C (single isomer, unassigned) [Example 145]",≤ 10,≤ 10,≤ 10
"CN1CCC[C@@H](Oc2cc(-c3cnn(C)c3)cc3ncnc(Nc4ccc5ncsc5c4)c23)C1 (single isomer, unassigned) [Example 47]",≤ 10,≤ 10,10.1 to 50

# Results, then the compound that gave them:
IC50 [1] [nM],IC50 [2] [nM],IC50 [3] [nM],SMILES
≤ 10,≤ 10,≤ 10,"C[C@@H](Oc1cc(-c2cnn(C)c2)cc2ncnc(Nc3ccc4ncsc4c3)c12)C(CO)CN(C)C (mixture of isomers) [Example A55, rac-(3R)-3-((4-(benzo[d]thiazol-6-ylamino)-7-(1-methyl-1H-pyrazol-4-yl)quinazolin-5-yl)oxy)-2-((dimethylamino)methyl)butan-1-ol]"
≤ 10,≤ 10,10.1 to 50,"CN1CC[C@H](Oc2cc(-c3cnn(C)c3)cc3ncnc(Nc4ccc5ncsc5c4)c23)C[C@H]1CO [Example A07, ((2S,4S)-4-((4-(benzo[d]thiazol-6-ylamino)-7-(1-methyl-1H-pyrazol-4-yl)quinazolin-5-yl)oxy)-1-methylpiperidin-2-yl)methanol]"
≤ 10,≤ 10,10.1 to 50,"CCC(=O)N1CCC(Oc2cc3c(Nc4ccc5ncsc5c4)ncnc3cc2OC)CC1 [Example 260, 1-(4-((4-(benzo[d]thiazol-6-ylamino)-7-methoxyquinazolin-6-yl)oxy)piperidin-1-yl)propan-1-one]"
≤ 10,≤ 10,≤ 10,"C[C@@H](Oc1cc(-c2cnn(C(C)(C)CO)c2)cc2ncnc(Nc3ccc4ncsc4c3)c12)C1COC1 (single isomer, unassigned) [Example 291]"
≤ 10,≤ 10,≤ 10,"COc1nn(C)cc1-c1cc(O[C@@H]2CCNC[C@H]2F)c2c(Nc3ccc4ncsc4c3F)ncnc2c1 [Example 350, 7-fluoro-N-(5-(((3R,4R)-3-fluoropiperidin-4-yl)oxy)-7-(3-methoxy-1-methyl-1H-pyrazol-4-yl)quinazolin-4-yl)benzo[d]thiazol-6-amine]"
≤ 10,≤ 10,10.1 to 50,"COc1cc2ncnc(Nc3ccc4ncsc4c3)c2cc1-c1cnn([C@H]2CCNC[C@@H]2F)c1 (racemic) [Example 168, trans-N-(6-(1-((3S,4S)-3-fluoropiperidin-4-yl)-1H-pyrazol-4-yl)-7-methoxyquinazolin-4-yl)benzo[d]thiazol-6-amine]"
≤ 10,≤ 10,≤ 10,"COC[C@@H](C)Oc1cc(-c2cnn(C)c2)cc2ncnc(Nc3ccc4ncsc4c3F)c12 [Example 91, (R)-7-fluoro-N-(5-((1-methoxypropan-2-yl)oxy)-7-(1-methyl-1H-pyrazol-4-yl)quinazolin-4-yl)benzo[d]thiazol-6-amine]"
≤ 10,≤ 10,≤ 10,"Cn1cc(-c2cc(OC3CCN(C4COC4)CC3)c3c(Nc4ccc5ncsc5c4)ncnc3c2)cn1 [Example 318, N-(7-(1-methyl-1H-pyrazol-4-yl)-5-((1-(oxetan-3-yl)piperidin-4-yl)oxy)quinazolin-4-yl)benzo[d]thiazol-6-amine]"
≤ 10,≤ 10,10.1 to 50,"C[C@H](Oc1cc(-c2cnn(C)c2)cc2ncnc(Nc3ccc4ncsc4c3F)c12)C1CCOC1 (stereo partly drawn) [Example 90, 7-fluoro-N-(7-(1-methyl-1H-pyrazol-4-yl)-5-((1S)-1-(tetrahydrofuran-3-yl)ethoxy)quinazolin-4-yl)benzo[d]thiazol-6-amine]"
≤ 10,≤ 10,≤ 10,"Cn1cc(-c2cc(OC3CC3)c3c(Nc4ccc5ncsc5c4)ncnc3c2)cn1 [Example 259, N-(5-cyclopropoxy-7-(1-methyl-1H-pyrazol-4-yl)quinazolin-4-yl)benzo[d]thiazol-6-amine]"
≤ 10,≤ 10,10.1 to 50,"Cc1ccn(-c2cc(OC3CCOCC3)c3c(Nc4ccc5ncsc5c4)ncnc3c2)n1 [Example 136, N-(7-(3-methyl-1H-pyrazol-1-yl)-5-((tetrahydro-2H-pyran-4-yl)oxy)quinazolin-4-yl)benzo[d]thiazol-6-amine]"
≤ 10,≤ 10,≤ 10,"CO[C@@H]1CCN(c2cc(O[C@H](C)C3COC3)c3c(Nc4ccc5ncsc5c4)ncnc3c2)C1 [Example 198, N-(7-((R)-3-methoxypyrrolidin-1-yl)-5-((R)-1-(oxetan-3-yl)ethoxy)quinazolin-4-yl)benzo[d]thiazol-6-amine]"
≤ 10,≤ 10,10.1 to 50,"CN1CC[C@H](Oc2cc(-c3cnn(C)c3)cc3ncnc(Nc4ccc5ncsc5c4)c23)C[C@@H]1CO [Example A08, [(2R,4S)-4-({4-[(1,3-benzothiazol-6-yl)amino]-7-(1-methyl-1H-pyrazol-4-yl)quinazolin-5-yl}oxy)-1-methylpiperidin-2-yl]methanol]"
≤ 10,≤ 10,≤ 10,"CC(Oc1cc(-c2cn(C)nc2OC(F)F)cc2ncnc(Nc3ccc4ncsc4c3)c12)C1COC1 (single isomer, unassigned) [Example 173]"
≤ 10,≤ 10,≤ 10,"COC[C@@H](C)Oc1cc(-n2cc([C@@H](C)O)cn2)cc2ncnc(Nc3ccc4ncsc4c3F)c12 (single isomer, unassigned) [Example A19]"
